Values joined by “and” are separate entries in the source; they are usually repeats but may differ in a detail not shown here. Equal values may be shown once.
Organism: Rattus norvegicus
Test: DrugMatrix - Regimen: Daily Repeat
Type: toxicity, organism-based, Sprague-Dawley
Parameters: regimen Daily Repeat, gender Male, age 6-8 weeks
Conditions: in vivo, po, route oral GAVAGE, vehicle 100 % WATER
[1] = 0 mg/kg, 72 h, tissue Blood, dose level Control, time 3 day
[2] = 0 mg/kg, 72 h, tissue Plasma, dose level Control, time 3 day
[3] = 0 mg/kg, 120 h, tissue Blood, dose level Control, time 5 day
[4] = 0 mg/kg, 120 h, tissue Plasma, dose level Control, time 5 day
[5] = 235 mg/kg, 72 h, tissue Blood, dose level Low, time 3 day

For `CCCC(CCC)C(=O)O` [VALPROIC ACID], the “ABSOLUTE BASOPHIL” value [1] was 0 CELLS/uL, the “ABSOLUTE LYMPHOCYTE” value [1] was 10696 CELLS/uL and 11257.17 CELLS/uL and the “ABSOLUTE SEGMENTED NEUTROPHIL” value [1] was 1045.33 CELLS/uL and 1220.33 CELLS/uL. For the same compound, the BASOPHIL [1] was 0%, the EOSINOPHIL [1] was 1% and 0.33% and the “ERYTHROCYTE COUNT” value [1] was 5.87 x10E6/uL and 5 x10E6/uL. The HEMATOCRIT [1] was 38.5% and 32.62%, the “LEUKOCYTE COUNT” value [1] was 12.07 x10E3/uL and 12.58 x10E3/uL and the LYMPHOCYTE [1] was 88.33% and 89%. For the same compound, the “MEAN CORPUSCULAR HEMOGLOBIN” value [1] was 23.47 pg and 25.67 pg, the “MEAN CORPUSCULAR HEMOGLOBIN CONCENTRATION” value [1] was 35.7 G/DL and 39.35 G/DL and the “MEAN CORPUSCULAR VOLUME” value [1] was 65.63 fL and 65.23 fL. The MONOCYTE [1] was 2% and 0.67%, the NEUTROPHIL [1] was 8.67% and 10% and the “NUCLEATED RED BLOOD CELLS” value [1] was 0 /100WBC. The “PLATELET COUNT” value [1] was 1151.33 x10E3/uL and 1162.5 x10E3/uL, the “ALANINE AMINOTRANSFERASE” value [2] was 60.67 u/L and 45.33 u/L and the ALBUMIN [2] was 4.23 G/DL and 3.95 G/DL. The “ALKALINE PHOSPHATASE” value [2] was 377.67 u/L and 356.17 u/L, the “ASPARTATE AMINOTRANSFERASE” value [2] was 85.33 u/L and 81 u/L and the “BLOOD UREA NITROGEN” value [2] was 15 mg/dL and 11 mg/dL. For the same compound, the “CARBON DIOXIDE” value [2] was 37 mmol/L and 29.83 mmol/L, the CHLORIDE [2] was 97.67 MEQ/L and 97.8 MEQ/L and the CHOLESTEROL [2] was 70.67 mg/dL and 65.17 mg/dL. For the same compound, the “CREATINE PHOSPHOKINASE” value [2] was 361.67 u/L and 211.33 u/L, the CREATININE [2] was 0.18 mg/dL and 0.11 mg/dL and the GLUCOSE [2] was 154 mg/dL and 164.67 mg/dL. The “LACTATE DEHYDROGENASE” value [2] was 99 u/L and 143.17 u/L, the LIPASE [2] was 12.67 u/L and 10.17 u/L and the PHOSPHORUS [2] was 9.53 mg/dL and 10.88 mg/dL. For the same compound, the POTASSIUM [2] was 5.55 MEQ/L and 6.08 MEQ/L, the SODIUM [2] was 143.1 MEQ/L and 141.54 MEQ/L and the “TOTAL BILIRUBIN” value [2] was 0.2 mg/dL and 0.23 mg/dL. For the same compound, the “TOTAL PROTEIN” value [2] was 5.97 G/DL and 5.65 G/DL, the “URIC ACID” value [2] was 0.77 mg/dL and 1 mg/dL and the “ABSOLUTE BASOPHIL” value [3] was 0 CELLS/uL. For the same compound, the “ABSOLUTE LYMPHOCYTE” value [3] was 9535 CELLS/uL and 9267.83 CELLS/uL, the “ABSOLUTE MONOCYTE” value [3] was 182 CELLS/uL and 194.33 CELLS/uL and the “ABSOLUTE SEGMENTED NEUTROPHIL” value [3] was 783 CELLS/uL and 572.5 CELLS/uL. For the same compound, the BASOPHIL [3] was 0%, the EOSINOPHIL [3] was 0% and 0.33% and the “ERYTHROCYTE COUNT” value [3] was 5.35 x10E6/uL and 5.41 x10E6/uL. The HEMATOCRIT [3] was 34.17% and 36.17%, the “LEUKOCYTE COUNT” value [3] was 10.5 x10E3/uL and 10.08 x10E3/uL and the LYMPHOCYTE [3] was 89.67% and 92.17%. The “MEAN CORPUSCULAR HEMOGLOBIN” value [3] was 24.67 pg and 25.73 pg, the “MEAN CORPUSCULAR HEMOGLOBIN CONCENTRATION” value [3] was 38.57 G/DL and 38.45 G/DL and the “MEAN CORPUSCULAR VOLUME” value [3] was 63.9 fL and 66.97 fL. For the same compound, the MONOCYTE [3] was 1.67% and 1.83%, the NEUTROPHIL [3] was 8.67% and 5.67% and the “PLATELET COUNT” value [3] was 990 x10E3/uL and 1122.33 x10E3/uL. The “ALANINE AMINOTRANSFERASE” value [4] was 46.67 u/L and 52.83 u/L, the ALBUMIN [4] was 3.97 G/DL and 4.12 G/DL and the “ALKALINE PHOSPHATASE” value [4] was 343.67 u/L and 367.33 u/L. The “ASPARTATE AMINOTRANSFERASE” value [4] was 71 u/L and 88 u/L, the “BLOOD UREA NITROGEN” value [4] was 11.67 mg/dL and 12.67 mg/dL and the “CARBON DIOXIDE” value [4] was 27 mmol/L and 33.67 mmol/L. For the same compound, the CHLORIDE [4] was 105.33 MEQ/L and 97 MEQ/L, the CHOLESTEROL [4] was 70.67 mg/dL and 67.5 mg/dL and the “CREATINE PHOSPHOKINASE” value [4] was 208.67 u/L and 358.67 u/L. For the same compound, the CREATININE [4] was 0.1 mg/dL and 0.14 mg/dL, the GLUCOSE [4] was 161.33 mg/dL and 152.33 mg/dL and the LIPASE [4] was 9.33 u/L and 10.5 u/L. The PHOSPHORUS [4] was 12.7 mg/dL and 10.63 mg/dL, the POTASSIUM [4] was 5.59 MEQ/L and 5.99 MEQ/L and the SODIUM [4] was 147.1 MEQ/L and 141.85 MEQ/L. The “TOTAL BILIRUBIN” value [4] was 0.17 mg/dL and 0.2 mg/dL, the “TOTAL PROTEIN” value [4] was 5.97 G/DL and 6.18 G/DL and the “URIC ACID” value [4] was 0.73 mg/dL and 0.52 mg/dL. For the same compound, the “ABSOLUTE BASOPHIL” value [5] was 0 CELLS/uL, the “ABSOLUTE EOSINOPHIL” value [5] was 39.33 CELLS/uL and the “ABSOLUTE LYMPHOCYTE” value [5] was 3794.33 CELLS/uL.

Reference: ChEMBL document CHEMBL3885881, “DrugMatrix”
